In BindingDB's records for doi:10.7270/Q22V2DH9 (Nmmlsc, 2007):

Biological target: T1, N-formyl peptide receptor 2 (Homo sapiens, UniProt P25090)
T1 sequence (P25090 whole entry): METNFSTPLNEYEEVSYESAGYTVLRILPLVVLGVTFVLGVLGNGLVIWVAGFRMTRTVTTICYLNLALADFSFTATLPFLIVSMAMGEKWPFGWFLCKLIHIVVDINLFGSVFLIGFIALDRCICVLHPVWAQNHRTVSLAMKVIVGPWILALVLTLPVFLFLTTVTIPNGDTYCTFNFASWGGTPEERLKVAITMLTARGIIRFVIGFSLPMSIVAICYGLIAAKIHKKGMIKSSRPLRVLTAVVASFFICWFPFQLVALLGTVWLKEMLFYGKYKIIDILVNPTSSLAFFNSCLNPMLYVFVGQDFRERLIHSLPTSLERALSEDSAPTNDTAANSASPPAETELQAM
Assay: human FPR2 ligand displacement potency – cell-based, flow cytometry, Ki from IC50, selectivity assay for FPR1 ligand SAR project, dose response (AID 723)

IC50, > 66.7 µM:
COc1ccccc1-c1c(C(F)(F)F)oc2cc(OC(=O)c3ccco3)ccc2c1=O
O=C(Oc1ccc2c(=O)c(-c3ccccc3Cl)c(C(F)(F)F)oc2c1)c1cccs1
CC(=O)C1C(=O)C(=O)N(CCc2c(C)[nH]c3ccccc23)C1c1cccc(F)c1 (configuration not stated)
COc1ccc(C(=O)C2C(=O)C(=O)N(CCc3c[nH]c4ccccc34)C2c2ccc(C(C)C)cc2)cc1 (configuration not stated)
COc1ccc(-c2c(C)[nH]n3c(=O)c4c(nc23)CCCC4)cc1
Cc1nc2c(-c3ccc(Cl)cc3)c(C(F)(F)F)[nH]n2c(=O)c1Cc1ccccc1
COc1ccc(C2C(C(=O)c3cccs3)C(=O)C(=O)N2CCCn2ccnc2)cc1 (configuration not stated) [1-(3-imidazol-1-ylpropyl)-2-(4-methoxyphenyl)-4-oxidanyl-3-thiophen-2-ylcarbonyl-2H-pyrrol-5-one]
COc1cc(C2C(C(C)=O)C(=O)C(=O)N2c2ccc(Br)cc2)ccc1O (configuration not stated) [1-(4-bromophenyl)-3-ethanoyl-2-(3-methoxy-4-oxidanyl-phenyl)-4-oxidanyl-2H-pyrrol-5-one]
Cc1sc2c(c1C)c(=O)n(Cc1ccccc1)c(=O)n2Cc1ccccc1F [1-[(2-fluorophenyl)methyl]-5,6-dimethyl-3-(phenylmethyl)thieno[2,3-d]pyrimidine-2,4-dione]
COc1ccc(C2C(C(=O)c3cccs3)C(=O)C(=O)N2CCN2CCOCC2)c(OC)c1 (configuration not stated) [2-(2,4-dimethoxyphenyl)-1-(2-morpholin-4-ylethyl)-4-oxidanyl-3-thiophen-2-ylcarbonyl-2H-pyrrol-5-one]
COc1ccc(C2C(C(=O)c3ccco3)C(=O)C(=O)N2CCCN2CCOCC2)cc1OC (configuration not stated) [2-(3,4-dimethoxyphenyl)-3-(furan-2-carbonyl)-4-hydroxy-1-(3-morpholin-4-ylpropyl)-2H-pyrrol-5-one]
O=C1C(=O)N(CCc2ccccc2)C(c2ccc(Cl)cc2)C1C(=O)c1cccs1 (configuration not stated) [2-(4-chlorophenyl)-4-hydroxy-1-(2-phenylethyl)-3-(thiophene-2-carbonyl)-2H-pyrrol-5-one]
O=C(O)C1CCCCC1C(=O)Nc1ccc(Br)cc1 (configuration not stated) [2-[(4-bromoanilino)-oxomethyl]-1-cyclohexanecarboxylic acid]
CCC(C)(C(=O)NC1CCCCC1)N(Cc1cccs1)C(C)=O (configuration not stated) [2-[acetyl(2-thenyl)amino]-N-cyclohexyl-2-methyl-butyramide]
COc1ccc(-c2c(C(F)(F)F)oc3cc(OC(=O)c4ccco4)ccc3c2=O)cc1OC [2-furancarboxylic acid [3-(3,4-dimethoxyphenyl)-4-oxo-2-(trifluoromethyl)-1-benzopyran-7-yl] ester]
O=C(Oc1ccc2c(=O)c(Oc3ccccc3Br)c(C(F)(F)F)oc2c1)c1cccs1 [2-thiophenecarboxylic acid [3-(2-bromophenoxy)-4-oxo-2-(trifluoromethyl)-1-benzopyran-7-yl] ester]
COc1cc(C2C(C(=O)c3cc4ccccc4o3)C(=O)C(=O)N2CCN(C)C)ccc1O (configuration not stated) [3-(1-benzofuran-2-carbonyl)-1-[2-(dimethylamino)ethyl]-4-hydroxy-2-(4-hydroxy-3-methoxyphenyl)-2H-pyrrol-5-one]
COc1ccc(C2C(C(=O)c3cc4ccccc4o3)C(=O)C(=O)N2CCN(C)C)cc1OC (configuration not stated) [3-(1-benzofuran-2-carbonyl)-2-(3,4-dimethoxyphenyl)-1-[2-(dimethylamino)ethyl]-4-hydroxy-2H-pyrrol-5-one]
O=C1C(=O)N(CCCn2ccnc2)C(c2cccnc2)C1C(=O)c1cc2ccccc2o1 (configuration not stated) [3-(1-benzofuran-2-carbonyl)-4-hydroxy-1-(3-imidazol-1-ylpropyl)-2-pyridin-3-yl-2H-pyrrol-5-one]
O=C1C(=O)N(CCCN2CCOCC2)C(c2cccnc2)C1C(=O)c1cc2ccccc2o1 (configuration not stated) [3-(1-benzofuran-2-carbonyl)-4-hydroxy-1-(3-morpholin-4-ylpropyl)-2-pyridin-3-yl-2H-pyrrol-5-one]
COc1ccc(-c2c(C(F)(F)F)oc3c(CN4CCOCC4)c(O)ccc3c2=O)cc1OC [3-(3,4-dimethoxyphenyl)-7-hydroxy-8-(4-morpholinylmethyl)-2-(trifluoromethyl)-1-benzopyran-4-one]
COc1ccc(C2C(C(=O)N3CCCC(C)C3)c3ccccc3C(=O)N2C)cc1 (configuration not stated) [3-(4-methoxyphenyl)-2-methyl-4-(3-methylpiperidin-1-yl)carbonyl-3,4-dihydroisoquinolin-1-one]
O=C1C(=O)N(CCCn2ccnc2)C(c2cccnc2)C1C(=O)c1ccco1 (configuration not stated) [3-(furan-2-carbonyl)-4-hydroxy-1-(3-imidazol-1-ylpropyl)-2-pyridin-3-yl-2H-pyrrol-5-one]
COc1ccc(OC)c(C2C(C(=O)c3ccc(C)cc3)C(=O)C(=O)N2CCC(=O)O)c1 (configuration not stated) [3-[(3E)-2-(2,5-dimethoxyphenyl)-3-[(4-methylphenyl)-oxidanyl-methylidene]-4,5-bis(oxidanylidene)pyrrolidin-1-yl]propanoic acid]
COc1ccc(-c2c(C(F)(F)F)oc3cc(OC(=O)c4cccnc4)ccc3c2=O)cc1OC [3-pyridinecarboxylic acid [3-(3,4-dimethoxyphenyl)-4-oxo-2-(trifluoromethyl)-1-benzopyran-7-yl] ester]
Cc1cccc(C2CC(=O)NC3=C2C(=O)CC(c2cccs2)C3)c1 (configuration not stated) [4-(3-methylphenyl)-7-thiophen-2-yl-1,3,4,6,7,8-hexahydroquinoline-2,5-dione]
O=C(O)CCCN1C(=O)C(=O)C(C(=O)c2ccccc2)C1/C=C/c1ccccc1 (configuration not stated) [4-[(4E)-2,3-bis(oxidanylidene)-4-[oxidanyl(phenyl)methylidene]-5-[(E)-2-phenylethenyl]pyrrolidin-1-yl]butanoic acid]
COc1ccc(C2C(C(=O)c3ccco3)C(=O)C(=O)N2CCN2CCOCC2)c(OC)c1 (configuration not stated) [5-(2,4-dimethoxyphenyl)-4-(furan-2-carbonyl)-3-hydroxy-1-(2-morpholinoethyl)-1H-pyrrol-2(5H)-one]
O=C1CC(c2ccccc2C(F)(F)F)C2=C(CC(c3cccs3)CC2=O)N1 (configuration not stated) [7-(2-thienyl)-4-[2-(trifluoromethyl)phenyl]-1,3,4,6,7,8-hexahydroquinoline-2,5-quinone]
COCCN1C(=O)C(=O)C(C(=O)c2ccccc2)C1c1ccc(C(C)C)cc1 (configuration not stated) [(4E)-1-(2-methoxyethyl)-4-[oxidanyl(phenyl)methylidene]-5-(4-propan-2-ylphenyl)pyrrolidine-2,3-dione]
COCCN1C(=O)C(=O)C(C(=O)c2ccccc2)C1c1ccccc1OC (configuration not stated) [(4E)-1-(2-methoxyethyl)-5-(2-methoxyphenyl)-4-[oxidanyl(phenyl)methylidene]pyrrolidine-2,3-dione]
COc1ccc(OC)c(C2C(C(=O)c3ccccc3)C(=O)C(=O)N2c2ccc(C)c(Cl)c2)c1 (configuration not stated) [(4E)-1-(3-chloranyl-4-methyl-phenyl)-5-(2,5-dimethoxyphenyl)-4-[oxidanyl(phenyl)methylidene]pyrrolidine-2,3-dione]
COc1ccc(C2C(C(=O)c3ccccc3)C(=O)C(=O)N2c2cccc(Cl)c2)c(OC)c1 (configuration not stated) [(4E)-1-(3-chlorophenyl)-5-(2,4-dimethoxyphenyl)-4-[hydroxy(phenyl)methylene]pyrrolidine-2,3-quinone]
COCCCN1C(=O)C(=O)C(C(=O)c2ccccc2)C1c1ccc(C(C)C)cc1 (configuration not stated) [(4E)-1-(3-methoxypropyl)-4-[oxidanyl(phenyl)methylidene]-5-(4-propan-2-ylphenyl)pyrrolidine-2,3-dione]
Cc1ccc(C(=O)C2C(=O)C(=O)N(c3nnc(C)s3)C2c2ccc(C(C)C)cc2)cc1 (configuration not stated) [(4E)-4-[(4-methylphenyl)-oxidanyl-methylidene]-1-(5-methyl-1,3,4-thiadiazol-2-yl)-5-(4-propan-2-ylphenyl)pyrrolidine-2,3-dione]
CC(C)c1ccc(C2C(C(=O)c3ccccc3)C(=O)C(=O)N2Cc2cccnc2)cc1 (configuration not stated) [(4E)-4-[hydroxy(phenyl)methylene]-5-p-cumenyl-1-(3-pyridylmethyl)pyrrolidine-2,3-quinone]
COc1ccc(C2C(C(=O)c3ccccc3)C(=O)C(=O)N2CCCn2ccnc2)c(OC)c1 (configuration not stated) [(4E)-5-(2,4-dimethoxyphenyl)-1-(3-imidazol-1-ylpropyl)-4-[oxidanyl(phenyl)methylidene]pyrrolidine-2,3-dione]
COc1ccc(C2C(C(=O)c3ccc(C)cc3)C(=O)C(=O)N2Cc2cccnc2)c(OC)c1 (configuration not stated) [(4E)-5-(2,4-dimethoxyphenyl)-4-[(4-methylphenyl)-oxidanyl-methylidene]-1-(pyridin-3-ylmethyl)pyrrolidine-2,3-dione]
COCCN1C(=O)C(=O)C(C(=O)c2ccccc2)C1c1cc(OC)ccc1OC (configuration not stated) [(4E)-5-(2,5-dimethoxyphenyl)-1-(2-methoxyethyl)-4-[oxidanyl(phenyl)methylidene]pyrrolidine-2,3-dione]
COc1ccc(OC)c(C2C(C(=O)c3ccccc3)C(=O)C(=O)N2c2cccnc2)c1 (configuration not stated) [(4E)-5-(2,5-dimethoxyphenyl)-4-[hydroxy(phenyl)methylene]-1-(3-pyridyl)pyrrolidine-2,3-quinone]
COCCCN1C(=O)C(=O)C(C(=O)c2ccccc2)C1c1ccc(O)c(OC)c1 (configuration not stated) [(4E)-5-(3-methoxy-4-oxidanyl-phenyl)-1-(3-methoxypropyl)-4-[oxidanyl(phenyl)methylidene]pyrrolidine-2,3-dione]
O=C1C(=O)N(CN2CCOCC2)C(c2ccc(Br)cc2)C1C(=O)c1ccccc1 (configuration not stated) [(4E)-5-(4-bromophenyl)-1-(morpholin-4-ylmethyl)-4-[oxidanyl(phenyl)methylidene]pyrrolidine-2,3-dione]
